Experimental data taken from ChEMBL document CHEMBL4483862, “Open-source discovery of chemical leads for next-generation chemoprotective antimalarials” (2018).
pIC50: −log10 of the molar value.

Test system: Plasmodium berghei
Experiment: Luciferase/luciferin-expressing antifolate-resistant parasites were used to infect a culture of HepG2 cells that were pre-incubated with compounds. Infected hepatocytes emit light due to the luciferase reaction. Assay results are presented as the percent inhibition of light emission compared to control. […]
Type: functional
Conditions: sporozoite; for IC90: read-out: LUCIFERASE INFECTION ASSAY - IC90
[1] = read-out: LUCIFERASE INFECTION ASSAY - IC50

O=C(c1ccc(S(=O)(=O)C(F)(F)F)cc1)N1CCN(Cc2csc(-c3ccccc3)n2)CC1
pIC50 (HEPG2TOX_HILL_SLOPE 2.26, HEPG2TOX_R_SQUARED 0.817, PBLUC_HILL_SLOPE 12.1, PBLUC_R_SQUARED 0.456, read-out: LUCIFERASE INFECTION ASSAY - IC50): 5.45 | IC90: 4.21 µM

O=C1CN(C(=O)Cc2ccc3c(c2)CCO3)c2ccccc2N1
pIC50 [1]: < 5.00 | IC90: > 10 µM

Cc1ccc(C(C)NC(=O)Cc2c(C)[nH]c(-c3ccccn3)nc2=O)cc1 (stereo not drawn)
pIC50 (HEPG2TOX_HILL_SLOPE 4.86, HEPG2TOX_R_SQUARED 0.498, PBLUC_HILL_SLOPE 12, PBLUC_R_SQUARED 0.399, read-out: LUCIFERASE INFECTION ASSAY - IC50): 5.03 | IC90: > 10 µM

CCOC(=O)c1sc(SCc2ccccc2)c(S(=O)(=O)C(C)C)c1N
pIC50 [1]: < 5.08 | IC90: > 8.26 µM

COc1ccccc1CNc1nc(NCc2ccccc2SC)c2sccc2n1
pIC50 [1]: < 5.11 | IC90: > 7.81 µM

CN(C)c1cccc(-c2cnc3cnc(-c4cnn(C)c4)cn23)c1
pIC50 (PBLUC_HILL_SLOPE 12.7, PBLUC_R_SQUARED 0.283, read-out: LUCIFERASE INFECTION ASSAY - IC50): 5.05 | IC90: > 10.4 µM

COc1ccc(-c2csc3nc(-c4cccnc4)nc(NCCN4CCOCC4)c23)cc1OC
pIC50 (PBLUC_HILL_SLOPE 9.41, PBLUC_R_SQUARED 0.036, read-out: LUCIFERASE INFECTION ASSAY - IC50): 5.03 | IC90: > 10 µM

CC(Cc1cccs1)N(Cc1ccc(Cl)cc1)C(=O)c1ccc(Cl)c(S(=O)(=O)N2CCCCC2)c1 (stereo not drawn)
pIC50 (FFLUC_HILL_SLOPE 17, FFLUC_R_SQUARED 0.198, read-out: LUCIFERASE INFECTION ASSAY - IC50): < 5.00 | IC90: > 10 µM

Cc1nn(Cc2ccccc2Cl)c(C)c1C(=O)Nc1nc(-c2ccccn2)cs1
pIC50 (PBLUC_HILL_SLOPE 5.44, PBLUC_R_SQUARED 0.0706, read-out: LUCIFERASE INFECTION ASSAY - IC50): 5.36 | IC90: 6.51 µM

CCN(CC)S(=O)(=O)c1cccc(-c2nnc(SCc3nc(=O)c4cccc(C)c4[nH]3)n2CC(C)C)c1
pIC50 (HEPG2TOX_HILL_SLOPE 0.901, HEPG2TOX_R_SQUARED 0.0979, read-out: LUCIFERASE INFECTION ASSAY - IC50): < 5.00 | IC90: > 10 µM

C/C(=N\NC(N)=S)c1ccc(OCc2ncc(C(F)(F)F)cc2Cl)cc1
pIC50 (FFLUC_HILL_SLOPE 17.3, FFLUC_R_SQUARED 0.0449, HEPG2TOX_HILL_SLOPE 9.24, HEPG2TOX_R_SQUARED 0.314, PBLUC_HILL_SLOPE 1.92, PBLUC_R_SQUARED 0.719, read-out: LUCIFERASE INFECTION ASSAY - IC50): 5.84 | IC90: 4.57 µM

CCCC(CNC(=O)COC(=O)c1ccc2[nH]c3c(c2c1)CCCC3)c1ccc(Cl)cc1Cl (stereo not drawn)
pIC50 (HEPG2TOX_HILL_SLOPE 0.187, HEPG2TOX_R_SQUARED 0.0336, read-out: LUCIFERASE INFECTION ASSAY - IC50): < 5.00 | IC90: > 10 µM

O=S(=O)(Nc1ccc(S(=O)(=O)NC2CC2)cc1)c1cc(F)cc(F)c1
pIC50 [1]: < 5.00 | IC90: > 10 µM

O=C(C[n+]1ccc(NC(=O)c2ccccc2)cc1)c1ccc(F)cc1
pIC50 (PBLUC_HILL_SLOPE 9.15, PBLUC_R_SQUARED 0.444, read-out: LUCIFERASE INFECTION ASSAY - IC50): 5.19 | IC90: > 7.95 µM

OCc1cccc(-c2ccc3ncc(-c4cccc(Cl)c4)n3n2)c1
pIC50 (HEPG2TOX_HILL_SLOPE 1.23, HEPG2TOX_R_SQUARED 0.98, PBLUC_HILL_SLOPE 1.42, PBLUC_R_SQUARED 0.52, read-out: LUCIFERASE INFECTION ASSAY - IC50): 6.24 | IC90: 2.73 µM

CCn1c(=S)[nH]c2cc(C(=O)N3CCN(C(c4ccc(F)cc4)c4ccc(F)cc4)CC3)ccc21
pIC50 [1]: < 5.00 | IC90: > 10 µM

CC(=O)c1cccc(-c2cnc3ccc(-c4cccc(Oc5ccccc5)c4)nn23)c1
pIC50 (HEPG2TOX_HILL_SLOPE 0.164, HEPG2TOX_R_SQUARED 0.772, PBLUC_HILL_SLOPE 1.12, PBLUC_R_SQUARED 0.566, read-out: LUCIFERASE INFECTION ASSAY - IC50): 5.72 | IC90: > 10 µM

CN(Cc1ccccc1NC(=O)c1ccc2c(c1)OCC(=O)N2)C1CCCCC1
pIC50 (PBLUC_HILL_SLOPE 10.4, PBLUC_R_SQUARED 0.15, read-out: LUCIFERASE INFECTION ASSAY - IC50): 5.02 | IC90: > 10 µM

O=C1NC2(CCOc3ccccc32)C(=O)N1CC(=O)N1N=C(c2ccc(Cl)cc2)CC1c1ccco1 (stereo not drawn)
pIC50 (PBLUC_HILL_SLOPE 2.24, PBLUC_R_SQUARED 0.678, read-out: LUCIFERASE INFECTION ASSAY - IC50): 5.27 | IC90: > 10 µM

COc1ccc(C(C)C)cc1-c1cnc(N)c(-c2ccc(F)c(Cl)c2)c1
pIC50 (HEPG2TOX_HILL_SLOPE 11.3, HEPG2TOX_R_SQUARED 0.599, PBLUC_HILL_SLOPE 2.08, PBLUC_R_SQUARED 0.63, read-out: LUCIFERASE INFECTION ASSAY - IC50): 5.40 | IC90: > 8.9 µM

COc1ccc(C(C)(C)C)cc1NC(=O)c1sc2nc3n(c(=O)c2c1C)CCC3
pIC50 [1]: < 5.00 | IC90: > 10 µM

Cc1nc(COc2ccc(F)cc2)sc1C(=O)Nc1nc2c(s1)CC(C)CC2 (stereo not drawn)
pIC50 [1]: < 5.00 | IC90: > 10 µM

NC(Cc1ccc(F)cc1)c1csc(Nc2ncccn2)n1 (stereo not drawn)
pIC50 (HEPG2TOX_HILL_SLOPE 5.82, HEPG2TOX_R_SQUARED 0.311, PBLUC_HILL_SLOPE 16.5, PBLUC_R_SQUARED 0.556, read-out: LUCIFERASE INFECTION ASSAY - IC50): 5.45 | IC90: 4.09 µM

Cc1cc(-c2csc(NC(=O)CCc3nc4ccccc4[nH]3)n2)c(C)s1
pIC50 (PBLUC_HILL_SLOPE 3, PBLUC_R_SQUARED 0.654, read-out: LUCIFERASE INFECTION ASSAY - IC50): 5.19 | IC90: > 10 µM

Cc1cc(C(=O)COC(=O)C2=COCCO2)c(C)n1Cc1ccco1
pIC50 [1]: < 5.00 | IC90: > 10 µM

Cc1cc(C)c2c(c1)C(=O)/C(=C/c1ccc(N(C)CCC#N)cc1)CC2
pIC50 [1]: < 5.00 | IC90: > 10 µM

O=C(CN(Cc1c(F)cccc1Cl)C1CC1)Nc1ccccc1Cl
pIC50 (FFLUC_HILL_SLOPE 11.2, FFLUC_R_SQUARED 0.995, read-out: LUCIFERASE INFECTION ASSAY - IC50): < 5.00 | IC90: > 10 µM

O=C(NCc1ccccc1)/C(=C/c1cn(-c2ccccc2)nc1-c1cccs1)c1nc2ccccc2[nH]1
pIC50 (PBLUC_HILL_SLOPE 3.73, PBLUC_R_SQUARED 0.245, read-out: LUCIFERASE INFECTION ASSAY - IC50): 5.26 | IC90: 9.82 µM

N#CC1c2ccccc2Oc2ccccc21
pIC50 (FFLUC_HILL_SLOPE 8.54, FFLUC_R_SQUARED 0.413, HEPG2TOX_HILL_SLOPE 16, HEPG2TOX_R_SQUARED 0.746, PBLUC_HILL_SLOPE 2.78, PBLUC_R_SQUARED 0.395, read-out: LUCIFERASE INFECTION ASSAY - IC50): 4.98 | IC90: > 15.9 µM

O=C(NC1CCCc2ccccc21)c1oc2ccccc2c1CSc1nccs1 (stereo not drawn)
pIC50 [1]: 5.19 | IC90: > 10 µM

CN1\C(=C/C=N/N=C/C2=C(N3CCOCC3)C(=C\c3ccc([N+](=O)[O-])cc3)/CC2)C(C)(C)c2ccccc21
pIC50 (PBLUC_HILL_SLOPE 22.4, PBLUC_R_SQUARED 0.296, read-out: LUCIFERASE INFECTION ASSAY - IC50): 5.07 | IC90: 9.46 µM

CCCOc1c(Cl)cc(C(=O)N2CCN(c3cccc(C)c3C)CC2)cc1OC
pIC50 (HEPG2TOX_HILL_SLOPE 9.26, HEPG2TOX_R_SQUARED 0.489, PBLUC_HILL_SLOPE 10.9, 0.598, PBLUC_R_SQUARED 0.349, 0.728, read-out: LUCIFERASE INFECTION ASSAY - IC50): 5.50 | IC90: > 10 µM

CN(CC(=O)Nc1ccccc1N1CCCCCC1)S(=O)(=O)c1ccccc1C#N
pIC50 (HEPG2TOX_HILL_SLOPE 3.04, HEPG2TOX_R_SQUARED 0.862, PBLUC_HILL_SLOPE 1.2, PBLUC_R_SQUARED 0.365, read-out: LUCIFERASE INFECTION ASSAY - IC50): 5.01 | IC90: > 10 µM

Cc1ccc(Cn2ncc3c(C(=O)Nc4ccc(C)c(F)c4)cc(C)nc32)cc1
pIC50 [1]: < 5.00 | IC90: > 10 µM

Fc1ccc(-c2csc(NCC3CCCO3)n2)cc1 (stereo not drawn)
pIC50 [1]: < 4.92 | IC90: > 11.9 µM

CNc1nc(CSc2ccc(Cl)cc2)nc2sc3c(c12)CCC3
pIC50 [1]: < 5.00 | IC90: > 10 µM

O=C(Nc1cccc(Cl)c1)Nc1cccc(Cl)c1
pIC50 (PBLUC_HILL_SLOPE 3.72, PBLUC_R_SQUARED 0.618, read-out: LUCIFERASE INFECTION ASSAY - IC50): 5.52 | IC90: 5.51 µM

Cc1ccc(COC(=O)c2cccc(S(=O)(=O)NCc3ccccc3)c2)cc1
pIC50 (HEPG2TOX_HILL_SLOPE 2.79, HEPG2TOX_R_SQUARED 0.991, PBLUC_HILL_SLOPE 8.82, PBLUC_R_SQUARED 0.278, read-out: LUCIFERASE INFECTION ASSAY - IC50): 5.42 | IC90: 4.92 µM

CC(C)(C)c1ccc(C(=O)NC(=S)Nc2nc3c(s2)CCCC3)cc1
pIC50 (PBLUC_HILL_SLOPE 2.3, PBLUC_R_SQUARED 0.829, read-out: LUCIFERASE INFECTION ASSAY - IC50): 5.47 | IC90: 8.77 µM

O=C(c1ccc2cc[nH]c2c1)N1CCN(C/C=C/c2ccccc2)CC1
pIC50 [1]: 5.13 | IC90: 9.08 µM

Cc1cc2[nH]c(C)cc(=O)n2n1
pIC50 (FFLUC_HILL_SLOPE 10.3, FFLUC_R_SQUARED 0.148, read-out: LUCIFERASE INFECTION ASSAY - IC50): < 4.69 | IC90: > 20.2 µM

CC(OC(=O)c1cccnc1N)C(=O)Nc1ccc2ccccc2c1 (stereo not drawn)
pIC50 [1]: < 5.00 | IC90: > 10 µM

CCCCNC(=O)c1c(NCCC)sc(C(=O)c2ccc(OC)cc2)c1N
pIC50 (PBLUC_HILL_SLOPE 4.7, PBLUC_R_SQUARED 0.148, read-out: LUCIFERASE INFECTION ASSAY - IC50): 5.05 | IC90: > 10 µM

CCOC(=O)c1sc(N(Cc2ccccc2)C(=O)CCc2cc(OC)c(OC)c(OC)c2)nc1C
pIC50 (PBLUC_HILL_SLOPE 16, PBLUC_R_SQUARED 0.382, read-out: LUCIFERASE INFECTION ASSAY - IC50): 5.45 | IC90: 4.11 µM
